This is an account of results in patent publication US20150087627A1, “COMBINATION OF KINASE INHIBITORS AND USES THEREOF” (Intellikine LLC, priority 2011, published 2015).

Holding throughout (assay type): biochemical
One assay addresses T1, PI3K α (p110α/p85α) (Homo sapiens, UniProt P42336).
T1 construct: purchased Upstate / Millipore Corporation
The assay is described as follows: PI 3-Kinase (human) HTRF assay, PI3K α. The note with it: read-out: PI3K α IC50. A general note: TR-FRET usually uses a lanthanide donor and a delayed reading to cut background.

Another assay deals with T2, PI3K β (p110β/p85α) (Homo sapiens, UniProt P42338).
T2 construct: purchased Upstate / Millipore Corporation
T2 sequence (P42338 whole entry): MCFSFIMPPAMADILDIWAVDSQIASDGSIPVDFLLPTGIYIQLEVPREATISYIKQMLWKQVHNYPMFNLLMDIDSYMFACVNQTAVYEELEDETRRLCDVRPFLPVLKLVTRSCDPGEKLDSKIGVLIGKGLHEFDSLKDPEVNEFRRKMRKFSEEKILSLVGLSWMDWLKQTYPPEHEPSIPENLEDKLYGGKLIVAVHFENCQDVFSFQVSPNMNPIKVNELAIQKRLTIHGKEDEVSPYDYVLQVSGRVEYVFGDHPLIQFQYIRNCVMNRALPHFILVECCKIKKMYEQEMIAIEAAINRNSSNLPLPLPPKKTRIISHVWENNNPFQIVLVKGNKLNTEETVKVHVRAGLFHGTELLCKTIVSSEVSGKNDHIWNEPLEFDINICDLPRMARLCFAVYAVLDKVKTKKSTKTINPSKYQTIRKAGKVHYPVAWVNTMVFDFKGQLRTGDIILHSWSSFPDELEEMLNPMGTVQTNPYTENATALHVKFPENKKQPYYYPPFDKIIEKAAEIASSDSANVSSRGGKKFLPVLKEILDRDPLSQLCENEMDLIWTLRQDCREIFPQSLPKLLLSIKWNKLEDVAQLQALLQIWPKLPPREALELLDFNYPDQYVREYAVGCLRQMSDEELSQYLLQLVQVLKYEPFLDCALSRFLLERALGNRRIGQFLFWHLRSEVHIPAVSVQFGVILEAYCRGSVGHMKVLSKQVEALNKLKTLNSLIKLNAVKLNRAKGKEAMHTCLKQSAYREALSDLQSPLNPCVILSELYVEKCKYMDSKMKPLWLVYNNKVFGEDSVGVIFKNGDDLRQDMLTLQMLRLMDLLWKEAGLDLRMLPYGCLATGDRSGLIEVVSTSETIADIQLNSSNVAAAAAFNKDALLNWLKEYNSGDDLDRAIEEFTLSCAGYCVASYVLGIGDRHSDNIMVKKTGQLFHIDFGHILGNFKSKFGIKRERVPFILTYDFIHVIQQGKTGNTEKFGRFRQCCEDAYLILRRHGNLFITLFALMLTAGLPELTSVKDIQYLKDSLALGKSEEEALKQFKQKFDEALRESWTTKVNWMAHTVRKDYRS
T2 sequence (P27986 whole entry partner): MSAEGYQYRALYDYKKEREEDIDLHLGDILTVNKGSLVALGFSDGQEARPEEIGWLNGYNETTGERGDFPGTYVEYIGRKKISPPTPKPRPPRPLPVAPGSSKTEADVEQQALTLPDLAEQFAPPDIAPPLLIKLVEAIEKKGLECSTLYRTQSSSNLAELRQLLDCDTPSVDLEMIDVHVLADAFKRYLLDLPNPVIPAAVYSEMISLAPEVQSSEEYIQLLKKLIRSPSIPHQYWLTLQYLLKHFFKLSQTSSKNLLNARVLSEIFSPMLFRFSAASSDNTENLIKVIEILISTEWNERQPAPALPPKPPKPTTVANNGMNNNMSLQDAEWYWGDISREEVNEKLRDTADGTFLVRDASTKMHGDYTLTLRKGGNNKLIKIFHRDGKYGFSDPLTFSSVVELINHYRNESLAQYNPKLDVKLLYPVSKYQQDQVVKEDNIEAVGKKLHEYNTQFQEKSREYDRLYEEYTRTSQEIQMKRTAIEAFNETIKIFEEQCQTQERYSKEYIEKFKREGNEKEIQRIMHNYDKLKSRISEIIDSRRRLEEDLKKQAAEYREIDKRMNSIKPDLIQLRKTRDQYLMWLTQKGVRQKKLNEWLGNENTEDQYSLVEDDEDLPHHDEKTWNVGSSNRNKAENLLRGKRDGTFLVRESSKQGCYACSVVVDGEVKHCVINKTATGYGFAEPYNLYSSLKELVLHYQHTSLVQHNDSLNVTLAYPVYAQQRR
The assay is described as follows: PI 3-Kinase (human) HTRF assay, PI3K β. The conditions noted are these: read-out: PI3K β IC50.

A further assay addresses T3, PI3K γ (p110γ) (Homo sapiens, UniProt P48736).
T3 construct: purchased Upstate / Millipore Corporation
The assay can be described thus: PI 3-Kinase (human) HTRF assay, PI3K γ. The note with it: read-out: PI3K γ IC50.

The next assay concerns the target T4, PI3K δ (Homo sapiens, UniProt O00329).
T4 construct: purchased Upstate / Millipore Corporation
The assay is described as follows: PI 3-Kinase (human) HTRF assay, PI3K δ. The note with it: read-out: PI3K δ IC50.

A value given as a limit tells only on which side of the number the result lay.

T3 sequence (P48736 whole entry): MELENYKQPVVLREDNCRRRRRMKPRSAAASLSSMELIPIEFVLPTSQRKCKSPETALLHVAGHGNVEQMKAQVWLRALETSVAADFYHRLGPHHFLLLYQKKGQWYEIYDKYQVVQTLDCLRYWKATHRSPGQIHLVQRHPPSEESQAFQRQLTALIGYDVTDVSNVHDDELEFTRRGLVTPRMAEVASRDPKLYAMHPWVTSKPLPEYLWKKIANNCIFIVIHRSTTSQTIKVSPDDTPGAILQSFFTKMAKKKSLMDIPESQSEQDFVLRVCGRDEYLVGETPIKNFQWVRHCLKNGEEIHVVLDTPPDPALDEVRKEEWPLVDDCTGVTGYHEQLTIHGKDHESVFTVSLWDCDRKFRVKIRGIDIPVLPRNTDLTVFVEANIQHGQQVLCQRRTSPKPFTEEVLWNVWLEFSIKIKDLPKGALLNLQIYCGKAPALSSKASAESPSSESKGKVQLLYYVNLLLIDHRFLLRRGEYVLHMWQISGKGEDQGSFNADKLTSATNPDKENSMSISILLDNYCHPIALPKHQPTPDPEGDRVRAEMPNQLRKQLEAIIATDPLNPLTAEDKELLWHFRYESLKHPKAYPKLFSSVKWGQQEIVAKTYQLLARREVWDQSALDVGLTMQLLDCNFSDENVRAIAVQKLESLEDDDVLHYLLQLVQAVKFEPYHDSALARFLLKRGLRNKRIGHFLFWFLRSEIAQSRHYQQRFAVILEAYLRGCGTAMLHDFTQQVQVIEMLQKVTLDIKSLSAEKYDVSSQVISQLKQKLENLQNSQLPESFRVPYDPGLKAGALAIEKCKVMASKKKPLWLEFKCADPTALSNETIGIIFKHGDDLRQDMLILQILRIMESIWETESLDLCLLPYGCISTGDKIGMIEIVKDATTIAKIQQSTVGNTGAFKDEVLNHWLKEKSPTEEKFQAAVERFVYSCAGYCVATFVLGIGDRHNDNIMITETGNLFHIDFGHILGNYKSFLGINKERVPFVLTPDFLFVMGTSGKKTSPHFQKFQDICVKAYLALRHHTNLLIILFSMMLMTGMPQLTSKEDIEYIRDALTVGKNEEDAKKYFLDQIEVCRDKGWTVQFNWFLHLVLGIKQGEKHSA
T4 sequence (O00329 whole entry): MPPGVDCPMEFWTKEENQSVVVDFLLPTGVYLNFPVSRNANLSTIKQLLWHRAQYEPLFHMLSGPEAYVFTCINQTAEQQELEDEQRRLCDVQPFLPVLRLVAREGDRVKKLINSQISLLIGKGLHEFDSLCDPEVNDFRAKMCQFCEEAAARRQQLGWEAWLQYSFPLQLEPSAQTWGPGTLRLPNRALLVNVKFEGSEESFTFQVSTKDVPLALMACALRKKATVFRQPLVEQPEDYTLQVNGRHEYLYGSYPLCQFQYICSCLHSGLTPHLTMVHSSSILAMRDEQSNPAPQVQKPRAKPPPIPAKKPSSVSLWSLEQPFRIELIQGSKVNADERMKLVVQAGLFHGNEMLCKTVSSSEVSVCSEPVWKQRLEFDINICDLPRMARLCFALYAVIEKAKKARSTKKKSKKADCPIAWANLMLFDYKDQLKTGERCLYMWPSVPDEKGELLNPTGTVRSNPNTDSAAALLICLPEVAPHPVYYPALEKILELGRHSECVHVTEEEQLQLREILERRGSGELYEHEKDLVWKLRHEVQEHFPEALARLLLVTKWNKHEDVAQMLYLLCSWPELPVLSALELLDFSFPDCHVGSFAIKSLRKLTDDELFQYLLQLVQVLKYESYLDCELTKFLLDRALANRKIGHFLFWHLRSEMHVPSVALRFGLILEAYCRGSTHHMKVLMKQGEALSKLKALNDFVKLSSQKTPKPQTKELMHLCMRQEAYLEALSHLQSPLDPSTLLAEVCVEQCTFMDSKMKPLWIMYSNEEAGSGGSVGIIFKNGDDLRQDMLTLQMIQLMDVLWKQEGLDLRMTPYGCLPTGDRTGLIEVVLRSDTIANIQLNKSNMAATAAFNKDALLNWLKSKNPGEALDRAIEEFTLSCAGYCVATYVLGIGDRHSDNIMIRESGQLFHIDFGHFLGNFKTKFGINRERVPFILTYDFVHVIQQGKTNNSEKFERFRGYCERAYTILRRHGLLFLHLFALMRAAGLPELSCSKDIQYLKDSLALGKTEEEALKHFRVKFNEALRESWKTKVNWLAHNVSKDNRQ
T4 sequence (P27986 whole entry partner): as the sequence (P27986 whole entry partner) above
T1 sequence (P42336 whole entry): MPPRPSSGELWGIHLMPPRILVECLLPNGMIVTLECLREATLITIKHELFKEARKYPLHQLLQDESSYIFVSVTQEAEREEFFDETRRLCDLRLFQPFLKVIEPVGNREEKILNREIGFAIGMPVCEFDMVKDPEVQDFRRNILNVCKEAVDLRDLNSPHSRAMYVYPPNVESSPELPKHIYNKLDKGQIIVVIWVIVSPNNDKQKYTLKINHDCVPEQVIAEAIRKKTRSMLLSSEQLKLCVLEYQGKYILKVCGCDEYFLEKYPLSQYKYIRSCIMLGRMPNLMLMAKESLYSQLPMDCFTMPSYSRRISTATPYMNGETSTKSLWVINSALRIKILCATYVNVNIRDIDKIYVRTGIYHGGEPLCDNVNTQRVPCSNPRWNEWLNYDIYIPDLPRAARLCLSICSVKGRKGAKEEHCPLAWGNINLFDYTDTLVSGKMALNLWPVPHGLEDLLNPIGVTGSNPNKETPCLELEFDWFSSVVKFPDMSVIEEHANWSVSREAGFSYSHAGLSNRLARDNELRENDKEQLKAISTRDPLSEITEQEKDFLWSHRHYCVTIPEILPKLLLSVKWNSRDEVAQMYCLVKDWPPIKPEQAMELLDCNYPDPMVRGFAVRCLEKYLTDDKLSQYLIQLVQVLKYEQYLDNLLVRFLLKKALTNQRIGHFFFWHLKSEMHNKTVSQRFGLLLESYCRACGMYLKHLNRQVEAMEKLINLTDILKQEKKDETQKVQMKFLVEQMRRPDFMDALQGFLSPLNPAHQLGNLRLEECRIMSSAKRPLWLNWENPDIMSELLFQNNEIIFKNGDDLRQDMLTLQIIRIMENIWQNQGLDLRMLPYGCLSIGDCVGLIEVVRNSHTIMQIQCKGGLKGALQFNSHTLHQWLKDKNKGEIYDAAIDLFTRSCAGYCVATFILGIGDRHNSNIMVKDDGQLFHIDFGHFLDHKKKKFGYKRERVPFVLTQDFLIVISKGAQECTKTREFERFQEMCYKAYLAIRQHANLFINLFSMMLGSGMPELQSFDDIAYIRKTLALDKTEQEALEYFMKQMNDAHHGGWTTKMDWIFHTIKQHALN
T1 sequence (P27986 whole entry partner): as the sequence (P27986 whole entry partner) above

Take `Nc1nc2cc(-c3ccc4ncc(C(=O)NCCO)n4c3)ccc2o1` [Compound 189]: the IC50 (usually the concentration needed to halve the response being measured) was below 100 nM on PI3K α (p110α/p85α), below 1000 nM on PI3K β (p110β/p85α), below 1000 nM at PI3K γ (p110γ) and below 1000 nM at PI3K δ.
As to `C[C@H]1CN(c2cnc3ccc(-c4cccc5nc(N)oc45)cc3n2)CCN1` [Compound 310], the IC50 on PI3K α (p110α/p85α), on PI3K β (p110β/p85α), on PI3K γ (p110γ) and at PI3K δ was above 10000 nM throughout.
Take `Nc1nc2cc(-c3ccc4ncc(C(=O)NCCCN5CCCC5)n4c3)ccc2o1` [Compound 293]: the IC50 was below 100 nM on PI3K α (p110α/p85α), below 1000 nM at PI3K β (p110β/p85α), below 1000 nM at PI3K γ (p110γ) and below 100 nM at PI3K δ.
As to `Nc1nc2cc(-c3ccc4ncc(N5CC(C(=O)N6CCN(CC7CC7)CC6)C5)nc4c3)ccc2o1` [Compound 287], the IC50 was below 100 nM on PI3K α (p110α/p85α), below 10000 nM on PI3K β (p110β/p85α), below 1000 nM on PI3K γ (p110γ) and below 1000 nM on PI3K δ.
As to `NC(=O)[C@@H]1CCCN1c1cnc2ccc(-c3ccc4oc(N)nc4c3)cc2n1` [Compound 257], the half-maximal inhibitory concentration (IC50) on PI3K α (p110α/p85α) is below 100 nM; at PI3K β (p110β/p85α), above 10000 nM; on PI3K γ (p110γ) it was above 10000 nM; at PI3K δ, above 10000 nM.
Take `Nc1nc2cc(-c3ccc4ncc(C(=O)N5CCC(F)(F)C5)n4c3)ccc2o1` [Compound 471]: the IC50 at PI3K α (p110α/p85α) was below 100 nM; at PI3K β (p110β/p85α), above 10000 nM; on PI3K γ (p110γ), below 100 nM; at PI3K δ it was above 10000 nM.
On to `CC(C)(C)N1CCN(c2cnc3ccc(-c4ccc5oc(N)nc5c4)cc3n2)CC1` [Compound 182], for which the half-maximal inhibitory concentration (IC50) at PI3K α (p110α/p85α) is below 100 nM; at PI3K β (p110β/p85α), below 1000 nM; on PI3K γ (p110γ) it was below 1000 nM; on PI3K δ, below 1000 nM.
With `Nc1nc2cc(-c3ccc4ncc(C(=O)N5CCC6(C5)OCCO6)n4c3)ccc2o1` [Compound 499], the IC50 is below 1000 nM at PI3K α (p110α/p85α), above 10000 nM on PI3K β (p110β/p85α), below 10000 nM on PI3K γ (p110γ) and above 10000 nM on PI3K δ.
In the case of `Nc1nc2ccc(-c3ccc4nc(N)oc4c3)cc2o1` [Compound 246], the IC50 at PI3K α (p110α/p85α), at PI3K β (p110β/p85α), at PI3K γ (p110γ) and on PI3K δ was above 10000 nM throughout.
Turning to `CS(=O)(=O)N1CCN(C(=O)c2cnc3ccc(-c4ccc5oc(N)nc5c4)cn23)CC1` [Compound 112], the IC50 at PI3K α (p110α/p85α) is below 100 nM; on PI3K β (p110β/p85α), above 10000 nM; on PI3K γ (p110γ) it was below 1000 nM; at PI3K δ, below 10000 nM.
Consider `Nc1nc2cc(-c3ccc4ncn(CCCN5CCOCC5)c(=O)c4c3)ccc2o1` [Compound 290], for which the half-inhibitory concentration (IC50) on PI3K α (p110α/p85α) is below 1000 nM; on PI3K β (p110β/p85α), above 10000 nM; at PI3K γ (p110γ), above 10000 nM; at PI3K δ it was above 10000 nM.
As to `CN1CCN(C(=O)c2cnc3ccc(-c4ccc5oc(N)nc5c4)nn23)CC1` [Compound 104], the IC50 was below 10000 nM at PI3K α (p110α/p85α), above 10000 nM on PI3K β (p110β/p85α), below 10000 nM at PI3K γ (p110γ) and above 10000 nM at PI3K δ.
As to `CN1CCC(NC(=O)c2cnc3ccc(-c4ccc5oc(N)nc5c4)nn23)CC1` [Compound 203], the IC50 at PI3K α (p110α/p85α) is below 100 nM; on PI3K β (p110β/p85α) it was below 100 nM; on PI3K γ (p110γ), below 100 nM; at PI3K δ, below 1000 nM.
Consider `Nc1nc2cc(-c3ccc4ncc(C(=O)N5CC6CCC(C5)O6)n4c3)ccc2o1` [Compound 504], for which the IC50 is below 1000 nM on PI3K α (p110α/p85α), below 10000 nM at PI3K β (p110β/p85α), below 100 nM on PI3K γ (p110γ) and above 10000 nM at PI3K δ.
Take `CC(=O)Nc1nc2ccc(-c3ccc4nc(N)oc4c3)cc2s1` [Compound 242]: the IC50 on PI3K α (p110α/p85α) was below 100 nM; at PI3K β (p110β/p85α) it was below 100 nM; at PI3K γ (p110γ) it was below 100 nM; on PI3K δ it was above 10000 nM.
Take `Nc1nc2cc(-c3ccc4ncc(N5CC(C(=O)NC6CC6)C5)nc4c3)ccc2o1` [Compound 215]: the IC50 is below 100 nM on PI3K α (p110α/p85α), below 1000 nM on PI3K β (p110β/p85α), below 1000 nM at PI3K γ (p110γ) and below 10000 nM on PI3K δ.
